Source: patent EP0046349A1, “Clavulanic acid derivatives, their preparation and use” (BEECHAM GROUP PLC, priority 1980, dated 1982)

Key:
Assay type in all cases: cell-based
Staph. aureus Russell [1] = assay: standard MIC synergy test
Text: (§1) […]

Klebsiella Aerogenes E70 = assay: standard MIC synergy test; details: Amoxycillin alone, no inhibitor (comparison); unit assumed
Text: as §1

Escherichia coli JT39 = assay: standard MIC synergy test
Text: as §1

Staph. aureus Russell [2] = assay: standard antibacterial test; set-up: unit not given here; details: compound alone
Text: IN A STANDARD ANTIBACTERIAL TEST, THE FOLLOWING DATA WERE OBTAINED

[3] = Amoxycillin alone, no inhibitor (comparison), unit assumed
[4] = Concentration of inhibitor 5.0 μg/ml, MIC of amoxycillin in presence of inhibitor, 'Inhibited' = inhibitor alone inhibits growth
[5] = Concentration of inhibitor 1.0 μg/ml, MIC of amoxycillin in presence of inhibitor, 'Inhibited' = inhibitor alone inhibits growth
[6] = Concentration of inhibitor 5.0 μg/ml, MIC of amoxycillin in presence of inhibitor

| SMILES | standard antibacterial test, Staph. Aureus Russell (Staph. aureus Russell [2]) | MIC synergy test, Staph. aureus Russell (Staph. aureus Russell [1]; [4]) | also measured |
| --- | --- | --- | --- |
| CC1(C)S[C@@H]2[C@H](NC(=O)[C@H](N)c3ccc(O)cc3)C(=O)N2[C@H]1C(=O)O [Amoxy-cillin, amoxycillin, reference compound] |  |  | MIC synergy test, Staph. aureus Russell (Staph. aureus Russell [1]; [3]): 500 µg/mL; MIC synergy test, Klebsiella Aerogenes E70 (Klebsiella Aerogenes E70): 1000 µg/mL; MIC synergy test, Escherichia coli JT39 (Escherichia coli JT39; [3]): 2000 µg/mL |
| CN(C)C=NC/C=C1\O[C@@H]2CC(=O)N2[C@H]1C(=O)O [Example 1, 9-N-(Dimethylaminomethylene) amino-9-deoxyclavulanic acid] | 4.0 | Inhibited |  |
| CC(N)=NC/C=C1\O[C@@H]2CC(=O)N2[C@H]1C(=O)O [Example 2, 9-N-(1'-aminoethylidene)amino-9-deoxyclavulanic acid] | 16.0 | Inhibited |  |
| CC(=NC/C=C1\O[C@@H]2CC(=O)N2[C@H]1C(=O)O)NCC(C)C [Example 3, 9-N-[1'-(N-isobutyl)aminoethylidene]amino-9-deoxyclavulanic acid] | 4.0 | Inhibited |  |
| CC(=NC/C=C1\O[C@@H]2CC(=O)N2[C@H]1C(=O)O)NCc1ccccc1 [Example 4, 9-N-[1-(N-benzyl)aminoethylidene]amino-9-deoxyclavulanic acid] | 2.0 | Inhibited |  |
| NC=NC/C=C1\O[C@@H]2CC(=O)N2[C@H]1C(=O)O [Example 5, 9-N-(aminomethylene)amino-9-deoxyclavulanic acid] | 4.0 | Inhibited |  |
| O=C(O)[C@H]1/C(=C/CN=CNCc2ccccc2)O[C@@H]2CC(=O)N21 [Example 6, 9-N-(N-benzylaminomethylene)amino-9-deoxyclavulanic acid] | 2.0 | Inhibited | MIC synergy test, Staph. aureus Russell (Staph. aureus Russell [1]; [5]): Inhibited |
| NC(=NC/C=C1\O[C@@H]2CC(=O)N2[C@H]1C(=O)O)c1ccccc1 [Example 7, 9 N-(1-aminobenzylidene)amino-9-deoxyclavulanic acid] | 8.0 | Inhibited |  |
| CC(=NC/C=C1\O[C@@H]2CC(=O)N2[C@H]1C(=O)O)NCCCCCC(=O)OCc1ccccc1 [Example 8, 9-N-[1(N-5-benzyloxycarbonylpentyl)aminoethylidene]amino-9-deoxyclavulanic acid] | 8.0 | Inhibited |  |
| CC(=NC/C=C1\O[C@@H]2CC(=O)N2[C@H]1C(=O)O)NCCCCCC(=O)O [Example 9, Lithium 9-N-[1-(N-5'Carboxylatopentyl)aminoethylidene]amino-9-deoxyclavlanic acid] | 62.5 |  |  |
| CC(=NC/C=C1\O[C@@H]2CC(=O)N2[C@H]1C(=O)O)NCC(=O)O [Example 10, Potassium 9-N-[1-(N-Carboxylatomethyl)aminoethylidene]amino-9-deoxyclavulanic acid] | 62.5 |  |  |
| CNC=NC/C=C1\O[C@@H]2CC(=O)N2[C@H]1C(=O)O [Example 11, 9-N-(N-methylaminomethylene)amino-9-deoxyclavulanic acid] | 4.0 | Inhibited |  |
| CCCC(N)=NC/C=C1\O[C@@H]2CC(=O)N2[C@H]1C(=O)O [Example 12, 9-N-(1-aminobutylidene)amino-9-deoxyclavulanic acid] | 4.0 | Inhibited |  |
| COCCC(N)=NC/C=C1\O[C@@H]2CC(=O)N2[C@H]1C(=O)O [Example 13, 9-N-(1'-amino-3'-methoxypropylidene)amino-9-deoxyclavulanic acid] | 16.0 |  |  |
| CCC(N)=NC/C=C1\O[C@@H]2CC(=O)N2[C@H]1C(=O)O [Example 14, 9-N-(1'aminopropylidene)amino-9-deoxyclavulanic acid] | 4.0 | Inhibited |  |
| CC(C)C(N)=NC/C=C1\O[C@@H]2CC(=O)N2[C@H]1C(=O)O [Example 16, 9-N-(1 t-amino-2'-methylpropylidene) amino-9-deoxyclavulanic acid.] | 4.0 | Inhibited |  |
| CCCCC(N)=NC/C=C1\O[C@@H]2CC(=O)N2[C@H]1C(=O)O [Example 18, 9-N-(l-aminopentylidene) amino-9-deoxyclavulanic acid.] | 2.0 | Inhibited |  |
| NC(=NC/C=C1\O[C@@H]2CC(=O)N2[C@H]1C(=O)O)C1CC1 [Example 19, 9-N-(amino-cyclopropylmethylene) amino-9-deoxyclavulanic acid.] | 4.0 | Inhibited | MIC synergy test, Escherichia coli JT39 (Escherichia coli JT39; [6]): Inhibited |
| NC(=NC/C=C1\O[C@@H]2CC(=O)N2[C@H]1C(=O)O)C1CCC1 [Example 20, 9-N-(amino-cyclobutylmethylene) amino-9-deoxyclavulanic acid.] | 4.0 | Inhibited | MIC synergy test, Escherichia coli JT39 (Escherichia coli JT39; [6]): Inhibited |
| CCN(C=NC/C=C1\O[C@@H]2CC(=O)N2[C@H]1C(=O)O)CC [Example 21, 9-N-(diethylaminomethylene) amino-9-deoxyclavulanic acid.] | 4.0 | Inhibited |  |
| CC(=NC/C=C1\O[C@@H]2CC(=O)N2[C@H]1C(=O)O)N(C)C [Example 22, 9-N-[1-(N,N-dimethyl)aminoethylidene] amino-9-deoxyclavulanic acid.] | ≤0.5 | Inhibited | MIC synergy test, Staph. aureus Russell (Staph. aureus Russell [1]; [5]): Inhibited; MIC synergy test, Escherichia coli JT39 (Escherichia coli JT39; [6]): Inhibited |
| CNC(=NC/C=C1\O[C@@H]2CC(=O)N2[C@H]1C(=O)O)c1ccccc1 [Example 23] | 2.0 | Inhibited | MIC synergy test, Staph. aureus Russell (Staph. aureus Russell [1]; [5]): Inhibited |
| CNC(C)=NC/C=C1\O[C@@H]2CC(=O)N2[C@H]1C(=O)O [Example 24, 9-N-[l-(N-methyl)aminoethylidene] amino-9-deoxyclavulanic acid.] | 8.0 | Inhibited |  |
| CCNC(C)=NC/C=C1\O[C@@H]2CC(=O)N2[C@H]1C(=O)O [Example 25] | 4.0 | Inhibited |  |
| O=C(O)[C@H]1/C(=C/CN=CN2CCCCC2)O[C@@H]2CC(=O)N21 [Example 26, 9-N-(N,N-pentamethyleneaminomethylene) amino-9-deoxyolavulanic acid.] | ≤0.5 | Inhibited | MIC synergy test, Staph. aureus Russell (Staph. aureus Russell [1]; [5]): Inhibited |
| O=C(O)[C@H]1/C(=C/CN=CN2CCCCCC2)O[C@@H]2CC(=O)N21 [Example 27, 9-N-(N,N-hexamethyleneaminomethylene) aimno-9-deoxyclavulanic acid.] | 1.0 | Inhibited | MIC synergy test, Staph. aureus Russell (Staph. aureus Russell [1]; [5]): Inhibited |
| CSCC(N)=NC/C=C1\O[C@@H]2CC(=O)N2[C@H]1C(=O)O [Example 28, 9-N-(1'-amino-2'-methylthioethylidene) amino-9-deoxyclavulanic acid.] | 2.0 |  |  |
| NC(Cc1cccs1)=NC/C=C1\O[C@@H]2CC(=O)N2[C@H]1C(=O)O [Example 29, 9-N-(1-amino-2-[2'-thienyl]ethylidene) amino-9-deoxyclavulanic acid.] | 2.0 |  |  |
| O=C(O)[C@H]1/C(=C/CN=C2CCCN2)O[C@@H]2CC(=O)N21 [Example 30, 9-N-(2-pyrrolidylidene) amino-9-deoxyclavulanic acid.] | 1.0 | Inhibited | MIC synergy test, Staph. aureus Russell (Staph. aureus Russell [1]; [5]): Inhibited |
| O=C(O)[C@H]1/C(=C/CN=C2CCCCN2)O[C@@H]2CC(=O)N21 [Example 31, 9-N-(2-piperidylidene) amino-9-deoxyclavulanic acid.] | 1.0 | Inhibited | MIC synergy test, Staph. aureus Russell (Staph. aureus Russell [1]; [5]): Inhibited |
